In US9884868B2, “TGF-beta inhibitors” (Rigel Pharmaceuticals, Inc., priority 2015, dated 2018):
Where a name gives a salt, the structure may show the parent alone.

Target: HIS-TGF-βR1 T204D (Homo sapiens (Human), UniProt P36897, T204D)
Assay: HTRF probe displacement assay with HIS-TGF-βR1 T204D
Conditions: not given

Sequence of HIS-TGF-βR1 T204D (P36897 34-503 T204D): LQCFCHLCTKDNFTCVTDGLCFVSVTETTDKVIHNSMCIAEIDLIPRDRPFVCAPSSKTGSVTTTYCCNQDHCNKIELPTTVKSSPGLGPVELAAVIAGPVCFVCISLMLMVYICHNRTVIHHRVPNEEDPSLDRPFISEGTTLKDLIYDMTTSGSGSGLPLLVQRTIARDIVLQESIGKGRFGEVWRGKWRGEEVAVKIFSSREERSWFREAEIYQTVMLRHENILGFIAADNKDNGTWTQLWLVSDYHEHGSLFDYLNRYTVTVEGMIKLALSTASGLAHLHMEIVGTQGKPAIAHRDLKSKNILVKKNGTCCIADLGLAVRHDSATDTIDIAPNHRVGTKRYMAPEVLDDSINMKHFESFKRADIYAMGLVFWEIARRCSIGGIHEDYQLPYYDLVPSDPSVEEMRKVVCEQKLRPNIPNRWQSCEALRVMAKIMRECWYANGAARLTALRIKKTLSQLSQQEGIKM

| IC50 [nM] | SMILES |
| --- | --- |
| 2.6 | N#Cc1cnc2ccc(-c3c(-c4ccc(F)c(Cl)c4)ncn3CCC(F)(F)F)nn12 [35′, 6-(4-(3-chloro-4-fluorophenyl)-1-(3,3,3-trifluoropropyl)-1H-imidazol-5-yl)imidazo[1,2-b]pyridazine-3-carbonitrile] |

Same assay, conditions: read-out: TGFbr1 IC50; HTRF probe displacement, 1 nM HIS-TGF-βR1 T204D, 1 hour at room temperature

| IC50 [nM] | SMILES |
| --- | --- |
| 0.9 | CNC(=O)c1cnc2ccc(-c3c(-c4ccc(F)cc4)ncn3CC(F)F)nn12 [206′, 6-(1-(2,2-difluoroethyl)-4-(4-fluorophenyl)-1H-imidazol-5-yl)-N-methylimidazo[1,2-b]pyridazine-3-carboxamide] |
| 109 | Nc1nc(-c2ccc(F)cc2)c(-c2ccc3nccn3c2)n1CC(F)F [Example 296′, 1-(2,2-difluoroethyl)-4-(4-fluorophenyl)-5-(imidazo[1,2-a]pyridin-6-yl)-1H-imidazol-2-amine, 2 HCl] |
| 54.5 | Fc1ccc(-c2ncn(C3CC(F)(F)C3)c2-c2ccc3nccn3c2)cc1Cl [184′, 6-(4-(3-chloro-4-fluorophenyl)-1-(3,3-difluorocyclobutyl)-1H-imidazol-5-yl)imidazo[1,2-a]pyridine] |
| 3.9 | Cn1cnc(-c2ccc(F)cc2)c1-c1ccc2ncc(C(N)=O)n2n1 [134′, 6-(4-(4-fluorophenyl)-1-methyl-1H-imidazol-5-yl)imidazo[1,2-b]pyridazine-3-carboxamide] |
| 1.1 | NC(=O)c1cnc2ccc(-c3c(-c4cc(Cl)ccc4F)ncn3CC(F)F)cn12 [234′, 6-(4-(5-chloro-2-fluorophenyl)-1-(2,2-difluoroethyl)-1H-imidazol-5-yl)imidazo[1,2-a]pyridine-3-carboxamide] |
| 73.2 | N#Cc1cnc2ccc(-c3c(-c4ccc(F)c(F)c4)ncn3CC(F)F)cn12 [226′, 6-(1-(2,2-difluoroethyl)-4-(3,4-difluorophenyl)-1H-imidazol-5-yl)imidazo[1,2-a]pyridine-3-carbonitrile] |
| 2.5 | CC(C)OCCn1cnc(-c2ccc(F)cc2)c1-c1ccc2ncc(C(N)=O)n2n1 [124′, 6-(4-(4-fluorophenyl)-1-(2-isopropoxyethyl)-1H-imidazol-5-yl)imidazo[1,2-b]pyridazine-3-carboxamide] |
| 516 | N#Cc1cnc2ccc(-c3c(-c4ccc(N)cc4)ncn3CC(F)F)nn12 [264′, 6-(4-(4-aminophenyl)-1-(2,2-difluoroethyl)-1H-imidazol-5-yl)imidazo[1,2-b]pyridazine-3-carbonitrile] |
| 9.2 | CCC(C)(C)n1cnc(-c2ccc(F)cc2)c1-c1ccc2ncc(C#N)n2n1 [30′, 6-(4-(4-fluorophenyl)-1-(tert-pentyl)-1H-imidazol-5-yl)imidazo[1,2-b]pyridazine-3-carbonitrile] |
| 1 | N#Cc1cnc2ccc(-c3c(-c4ccc(F)c(Cl)c4)ncn3CCCO)nn12 [38′, 6-(4-(3-chloro-4-fluorophenyl)-1-(3-hydroxypropyl)-1H-imidazol-5-yl)imidazo[1,2-b]pyridazine-3-carbonitrile] |
| 1.4 | CC(C)CCn1cnc(-c2ccc(F)c(Cl)c2)c1-c1ccc2ncc(C#N)n2n1 [49′, 6-(4-(3-chloro-4-fluorophenyl)-1-isopentyl-1H-imidazol-5-yl)imidazo[1,2-b]pyridazine-3-carbonitrile] |
| 36.2 | CCn1cnc(-c2ccc(F)cc2)c1-c1ccc2ncc(C#N)n2c1 [73′, 6-(1-ethyl-4-(4-fluorophenyl)-1H-imidazol-5-yl)imidazo[1,2-a]pyridine-3-carbonitrile] |
| 3.3 | FCCn1cnc(-c2ccc(F)c(Cl)c2)c1-c1ccc2nccn2c1 [187′, 6-(4-(3-chloro-4-fluorophenyl)-1-(2-fluoroethyl)-1H-imidazol-5-yl)imidazo[1,2-a]pyridine] |
| 92.6 | CC(C)(O)Cn1cnc(-c2ccc(F)cc2)c1-c1ccc2ncc(C#N)n2n1 [26′, 6-(4-(4-fluorophenyl)-1-(2-hydroxy-2-methylpropyl)-1H-imidazol-5-yl)imidazo[1,2-b]pyridazine-3-carbonitrile] |
| 2.2 | OCc1cnc2ccc(-c3c(-c4ccc(F)cc4)ncn3CC(F)F)nn12 [Example 210′, (6-(1-(2,2-difluoroethyl)-4-(4-fluorophenyl)-1H-imidazol-5-yl)imidazo[1,2-b]pyridazin-3-yl)methanol] |
| 41.4 | Fc1ccc(-c2ncn(CC(F)F)c2-c2ccc3nccn3c2)cc1F [220′, 6-(1-(2,2-difluoroethyl)-4-(3,4-difluorophenyl)-1H-imidazol-5-yl)imidazo[1,2-a]pyridine] |
| 6.1 | NC(=O)c1cnc2ccc(-c3c(-c4ccc(F)cc4)ncn3C3CC(F)(F)C3)nn12 [106′, 6-(1-(3,3-difluorocyclobutyl)-4-(4-fluorophenyl)-1H-imidazol-5-yl)imidazo[1,2-b]pyridazine-3-carboxamide] |
| 0.4 | CC(C)n1cnc(-c2ccc(F)cc2)c1-c1ccc2ncc(C#N)n2n1 [24′, 6-(4-(4-fluorophenyl)-1-isopropyl-1H-imidazol-5-yl)imidazo[1,2-b]pyridazine-3-carbonitrile] |
| 173 | Cc1ccc(-c2ncn(CC(F)F)c2-c2ccc3ncc(C#N)n3n2)cc1 [241′, 6-(1-(2,2-difluoroethyl)-4-(p-tolyl)-1H-imidazol-5-yl)imidazo[1,2-b]pyridazine-3-carbonitrile] |

| IC50 [nM] | SMILES |
| --- | --- |
| 418 | N#Cc1cnc2ccc(-c3c(-c4ccc(F)cc4)ncn3C3CC(F)(F)C3)cn12 [66′, 6-(1-(3,3-difluorocyclobutyl)-4-(4-fluorophenyl)-1H-imidazol-5-yl)imidazo[1,2-a]pyridine-3-carbonitrile] |
| 55.8 | CCC(C)n1cnc(-c2ccc(F)cc2)c1-c1ccc2ncc(C#N)n2c1 (centres unmarked) [67′, 6-(1-(sec-butyl)-4-(4-fluorophenyl)-1H-imidazol-5-yl)imidazo[1,2-a]pyridine-3-carbonitrile] |
| 2.2 | CCC(CO)n1cnc(-c2ccc(F)cc2)c1-c1ccc2ncc(C(N)=O)n2c1 (centres unmarked) [179′, 6-(4-(4-fluorophenyl)-1-(1-hydroxybutan-2-yl)-1H-imidazol-5-yl)imidazo[1,2-a]pyridine-3-carboxamide] |
| 0.9 | N#Cc1cnc2ccc(-c3c(-c4ccc(F)c(Cl)c4)ncn3CCF)nn12 [34′, 6-(4-(3-chloro-4-fluorophenyl)-1-(2-fluoroethyl)-1H-imidazol-5-yl)imidazo[1,2-b]pyridazine-3-carbonitrile] |
| 0.3 | N#Cc1cnc2ccc(-c3c(-c4ccc(F)cc4)ncn3C3(C#N)CC3)nn12 [Example 267′, 6-(1-(1-cyanocyclopropyl)-4-(4-fluorophenyl)-1H-imidazol-5-yl)imidazo[1,2-b]pyridazine-3-carbonitrile, TFA] |
| 0.6 | CC(F)(F)Cn1cnc(-c2ccc(F)cc2)c1-c1ccc2ncc(C(N)=O)n2n1 [137′, 6-(1-(2,2-difluoropropyl)-4-(4-fluorophenyl)-1H-imidazol-5-yl)imidazo[1,2-b]pyridazine-3-carboxamide] |
| 172 | Cc1nc(-c2ccc(F)cc2)c(-c2ccc3nccn3c2)n1CC(F)F [Example 271′, 6-(1-(2,2-difluoroethyl)-4-(4-fluorophenyl)-2-methyl-1H-imidazol-5-yl)imidazo[1,2-a]pyridine] |
| 1.9 | N#Cc1cnc2ccc(-c3c(-c4ccc(F)cc4)ncn3CCCF)nn12 [21′, 6-(4-(4-fluorophenyl)-1-(3-fluoropropyl)-1H-imidazol-5-yl)imidazo[1,2-b]pyridazine-3-carbonitrile] |
| 14.3 | N#Cc1cnc2ccc(-c3c(-c4ccc5c(c4)OCO5)ncn3CC(F)F)nn12 [247′, 6-(4-(benzo[d][1,3]dioxol-5-yl)-1-(2,2-difluoroethyl)-1H-imidazol-5-yl)imidazo[1,2-b]pyridazine-3-carbonitrile] |
| 121 | N#Cc1cnc2ccc(-c3c(-c4ccc(F)cc4)ncn3CCCF)cn12 [84′, 6-(4-(4-fluorophenyl)-1-(3-fluoropropyl)-1H-imidazol-5-yl)imidazo[1,2-a]pyridine-3-carbonitrile] |
| 1.8 | N#Cc1cnc2ccc(-c3c(-c4ccc(F)c(Cl)c4)ncn3C[C@@H]3CCCO3)nn12 [42′, (S)-6-(4-(3-chloro-4-fluorophenyl)-1-((tetrahydrofuran-2-yl)methyl)-1H-imidazol-5-yl)imidazo[1,2-b]pyridazine-3-carbonitrile] |
| 0.8 | N#Cc1cnc2ccc(-c3c(-c4ccc(F)c(Cl)c4)ncn3CCC3CC3)nn12 [61′, 6-(4-(3-chloro-4-fluorophenyl)-1-(2-cyclopropylethyl)-1H-imidazol-5-yl)imidazo[1,2-b]pyridazine-3-carbonitrile] |
| 1.6 | NC(=O)c1cnc2ccc(-c3c(-c4ccc(F)c(Cl)c4)ncn3CCCO)nn12 [142′, 6-(4-(3-chloro-4-fluorophenyl)-1-(3-hydroxypropyl)-1H-imidazol-5-yl)imidazo[1,2-b]pyridazine-3-carboxamide] |
| 10.4 | Cc1nc(-c2ccc(F)cc2)c(-c2ccc3ncc(C(N)=O)n3c2)n1CC(F)F [Example 272′, 6-(1-(2,2-difluoroethyl)-4-(4-fluorophenyl)-2-methyl-1H-imidazol-5-yl)imidazo[1,2-a]pyridine-3-carboxamide] |
| 13.8 | N#Cc1cnc2ccc(-c3c(-c4ccc(F)cc4)nc4n3CCC4)cn12 [283B′, 6-(2-(4-fluorophenyl)-6,7-dihydro-5H-pyrrolo[1,2-a]imidazol-3-yl)imidazo[1,2-a]pyridine-3-carbonitrile] |
| 17.3 | Cn1cnc(-c2ccc(F)c(Cl)c2)c1-c1ccc2ncc(C#N)n2c1 [98′, 6-(4-(3-chloro-4-fluorophenyl)-1-methyl-1H-imidazol-5-yl)imidazo[1,2-a]pyridine-3-carbonitrile] |
| 5.2 | COc1cc(-c2ncn(CC(F)F)c2-c2ccc3ncc(C#N)n3n2)ccc1F [262′, 6-(1-(2,2-difluoroethyl)-4-(4-fluoro-3-methoxyphenyl)-1H-imidazol-5-yl)imidazo[1,2-b]pyridazine-3-carbonitrile] |
| 137 | CC(O)c1cnc2ccc(-c3c(-c4ccc(F)cc4)ncn3CC(F)F)cn12 (centres unmarked) [Example 274′, 1-(6-(1-(2,2-difluoroethyl)-4-(4-fluorophenyl)-1H-imidazol-5-yl)imidazo[1,2-a]pyridin-3-yl)ethanol] |
